The source of these data is patent EP1369114A1, “Use of tryptophan metabolites as pharmaceutical agents” (Terness, Peter, Priv. Doz. Dr., priority 2002, dated 2003).

SMILES strings stand for the structures.

For assay [1], the system named is T cells activated with allogeneic dendritic cells. The experiment in a line: Allogeneic restimulation, with donor-specific or third-party DCs, of T cells activated with allogeneic DCs. It is filed as cell-based, human. Also on record: restimulation with donor-specific DCs: dose or concentration left out as unconfirmed. From the text:
• (a) Allogeneic T-cell response. DCs were infected with recombinant IDO-adeno-GFP (DC-IDO-GFP), IDO-adeno (DC-IDO) or with control adenoviruses (DC-adeno) at a MOI (multiplicity of infection) up to 500 for 2 days. Lymphocytes (PBMCs) were separated from peripheral blood of healthy donors by density gradient centrifugation and typed for HLA antigens. Only HLA-DR-different responder lymphocytes were used for DC-induced stimulation. Native DCs only, lymphocytes only, native DCs + allogeneic lymphocytes, DC-IDO-GFP + allogeneic lymphoytes, DC-IDO + allogeneic lymphoytes, DC-adeno + allogeneic lymphocytes (each time 10^5 DC + 10^5 lymphocytes in 0.2ml medium) were cultured in RPMI 1640 medium (Gibco BRL Life Technologies GmbH, Eggenstein, Germany) with 10% fetal calf serum (FCS) (final tryptophan concentration 5.25 mg/l = 25.69 uM) and Penicillin G/Streptomycin. After 5 days, ^3[H]-thymidin was added for 12hrs and the number of counts (counts per minute = cpm) determined in a (3-counter (Inotech Biosystems, Lansing, MI). In order to verify whether IDO expression or adenovirus infection harm the DCs, 10^5 cells were infected with IDO-adeno-GFP, IDO-adenovirus, or adenovirus only at a stepwise decreasing MOI (500, 250, 125, ........ 3.9) and cell viability was measured in FACS following double staining with 7-AAD and anti-CD83 antibody-PE. The percentage of dead cells never exceeded 30% for any MOI following IDO-adeno-GFP- or IDO-adeno-infection and 40% following adenovirus(control)-infection. Moreover, these values were not higher than those of native DCs cultured for the same period of time. […] After 2 days, cell proliferation was assessed by measuring ^3[H]-thymidin incorporation (cpm) as described. • (c) Tryptophan metabolite titration curves. […] After 2 days, ^3[H] thymidin was added and the number of counts recorded. […] After another 2 days, ^3[H] thymidin was added and cpm determined. […] 3[H] thymidin was added to all cultures and the number of counts (cpm) determined. • (e) Tryptophan titration curve. […]

For assay [2], the system named is kynurenine-suppressed T cells. The experiment in a line: Polyclonal restimulation with Concanavalin A of T cells suppressed during anti-CD3 stimulation. It is filed as cell-based, human. The note with it: anti-CD3 plus kynurenine 2 days, washed, Con-A in the absence of kynurenine. As for the experimental part: • (a) Allogeneic T-cell response. DCs were infected with recombinant IDO-adeno-GFP (DC-IDO-GFP), IDO-adeno (DC-IDO) or with control adenoviruses (DC-adeno) at a MOI (multiplicity of infection) up to 500 for 2 days. Lymphocytes (PBMCs) were separated from peripheral blood of healthy donors by density gradient centrifugation and typed for HLA antigens. Only HLA-DR-different responder lymphocytes were used for DC-induced stimulation. […] After 5 days, ^3[H]-thymidin was added for 12hrs and the number of counts (counts per minute = cpm) determined in a (3-counter (Inotech Biosystems, Lansing, MI). In order to verify whether IDO expression or adenovirus infection harm the DCs, 10^5 cells were infected with IDO-adeno-GFP, IDO-adenovirus, or adenovirus only at a stepwise decreasing MOI (500, 250, 125, ........ 3.9) and cell viability was measured in FACS following double staining with 7-AAD and anti-CD83 antibody-PE. The percentage of dead cells never exceeded 30% for any MOI following IDO-adeno-GFP- or IDO-adeno-infection and 40% following adenovirus(control)-infection. […] After 2 days, cell proliferation was assessed by measuring ^3[H]-thymidin incorporation (cpm) as described. • (c) Tryptophan metabolite titration curves. […] After 2 days, ^3[H] thymidin was added and the number of counts recorded. […] After another 2 days, ^3[H] thymidin was added and cpm determined. […]

Regarding `Nc1ccccc1C(=O)CC(N)C(=O)O` (stereo not shown) [kynurenine], the “restimulation with third-party DCs” value in assay [1] (extremely high doses (1500µM or 750µM) of kynurenine) is recorded as “only minimal reactions”; in assay [1] (medium or low doses (375µM - 47µM) of kynurenine), “significant restimulation”. In assay [1] (kynurenine in primary stimulation, 5 days, washed), the “restimulation with donor-specific DCs” value was “cannot be restimulated with DCs from the same donor”. Also, in assay [2], the “restimulation with Con-A after suppression” value is recorded as “cannot be restimulated”.
